Measurements published in patent US20250032477A1, “COMPOUNDS, PHARMACEUTICAL COMPOSITIONS, AND METHODS FOR THE TREATMENT, PREVENTION, OR MANAGEMENT OF HYPERPROLIFERATIVE DISORDERS” (VINCERX PHARMA GMBH, priority 2021, published 2025).
pIC50: −log10 of the molar value. Where two headings read alike, the source gives them in different places.

Experiments:
786-O [1] = test: Cytotoxicity in vitro in the presence and absence of elastase (MTT); type: cell-based, human; settings: Homo sapiens, 786-0, 786-O cells, 72 h, MTT
Method: (§1) Cultivation of cells was performed according to standard procedures with the media recommended by the provider. The cells, in a total volume of 100 μL, were seeded in a 96-well plate with a white bottom (#3610). After a 24 h incubation period at 37° C. and […], the medium was exchanged by adding 90 μL fresh medium. The treatment started by adding the test compound in 10 μL of culture medium to the cells in triplicates. Concentrations ranging from 10^−5 M to 10^−13 M were chosen. Two identically treated sets of samples were prepared. One set was treated with the test compound alone, whereas to the second set the compound and 10 nM elastase was added followed by a 72 h incubation period at 37° C. and 5% CO2. The proliferation was detected using the MTT assay (ATCC). At the end of the incubation period the MTT reagent was added to all samples for 4 h. Lysis of the cells followed by addition of the detergent was done overnight. The formed dye was detected at 570 nm. The proliferation of untreated but otherwise identically handled cells was define as the […].

HT29 [2] = test: as above; type: cell-based, human; settings: Homo sapiens, HT-29, HT29 cells, 72 h, MTT
Method: as §1

NCI H292 [3] = test: as above; type: cell-based, human; settings: Homo sapiens, NCI H292 cells, 72 h, MTT
Method: as §1

SUM149 [4] = test: as above; type: cell-based; settings: SUM149 cells, 72 h, MTT
Method: as §1

in vitro = settings: human, Caco-2
Method: (§2) Caco-2: The cell permeability of a substance can be investigated by means of in vitro testing in a flux assay using Caco-2 cells [M. D. Troutman and D. R. Thakker, Pharm. Res. 20 (8), 1210-1224 (2003)]. For this purpose, the cells were cultured for 15-16 days on 24-well filter plates. For the determination of permeation, the respective test substance was applied in a HEPES buffer to the cells either apically (A) or basally (B) and incubated for 2 hours. After 0 hours and after 2 hours, samples were taken from the cis and trans compartments. The samples were separated by HPLC (Agilent 1200, Böblingen, Germany) using reverse phase columns. The HPLC system was coupled via a Turbo Ion Spray Interface to a Triple Quadropol mass spectrometer API 4000 (AB SCIEX Deutschland GmbH, Darmstadt, Germany). The permeability was evaluated on the basis of a Papp value, which was calculated using the formula published by Schwab et al. [D. Schwab et al., J. Med. Chem. 46, 1716-1725 (2003)]. A substance was classified as actively transported when the ratio of Papp (B-A) to Papp (A-B) (efflux ratio) was >2 or <0.5. Compounds with an efflux ratio of 0.5-2 are considered not actively transported. In Table 5, reference compounds are provided for comparison. Ref 1 is exatecan mesylate, Ref 2 is DXd, and Ref 3 is 10,11-methylenedioxy-camptothecin (FL118).

Caco-2 cells = test: Caco-2 flux assay for cellular permeability; settings: Caco-2 cells; for Caco-2 Flux Papp A-B: apical to basal, 2 hours, HEPES buffer; for Caco-2 Flux Efflux ratio: ratio of Papp (B-A) to Papp (A-B), actively transported when >2 or <0.5
Method: as §2

786-O [5] = test: Cytotoxicity assay (Version 2), automated, AC50, with or without elastase; type: cell-based, human; settings: Homo sapiens, 786-0, 786-O cells, Version 2, activity concentration at −50%
Method: as §1
(§3) The Cytotoxicity assay (Version 2) was performed as above described. Some changes were applied as the assays were performed in an automated fashion and the IC50 values determination was changed. Here the change in metabolic activity of the cells, in percent, was calculated by normalization of the measured values to the absorbance values of medium containing wells without cells (=−100%) and the absorbance of the DMSO-treated cells (=0%). AC50 values (activity concentration at −50%) were determined by means of a 4 parameter Hill-fit using GeneData Screener software.

HT29 [6] = test: as above; type: cell-based, human; settings: Homo sapiens, HT-29, HT29 cells, Version 2, activity concentration at −50%
Method: as §1, §3

NCI H292 [7] = test: as above; type: cell-based, human; settings: Homo sapiens, NCI H292 cells, Version 2, activity concentration at −50%
Method: as §1, §3

SUM149 [8] = test: as above; type: cell-based; settings: SUM149 cells, Version 2, activity concentration at −50%
Method: as §1, §3

HT29 [9] = test: Cytotoxicity in vitro in the presence and absence of legumain; type: cell-based; settings: Homo sapiens
NCI H292 [10] = test: as above; type: cell-based; settings: Homo sapiens
SUM149 [11] = test: as above; type: cell-based
[12] = with 10 nM elastase, read-out: 786-O IC50 w elastase
[13] = without elastase, read-out: 786-O IC50 w/o
[14] = with 10 nM elastase, read-out: HT29 IC50 w elastase
[15] = without elastase, read-out: HT29 IC50 w/o
[16] = with 10 nM elastase, read-out: NCI H292 IC 50 w elastase
[17] = without elastase, read-out: NCI H292 IC 50 w/o
[18] = with 10 nM elastase, read-out: SUM149 IC50 w elastase
[19] = without elastase, read-out: SUM149 IC50 w/o

Compound | pIC50 (786-O [1]; [12]) | pIC50 (786-O [1]; [13]) | pIC50 (HT29 [2]; [14]) | pIC50 (HT29 [2]; [15]) | pIC50 (NCI H292 [3]; [16]) | pIC50 (NCI H292 [3]; [17]) | pIC50 (SUM149 [4]; [18]) | pIC50 (SUM149 [4]; [19]) | Papp A→B at 2 h (in vitro) [×10⁻⁶ cm/s] | efflux ratio at 2 h (in vitro) | Caco-2 Flux Papp A-B (Caco-2 cells) | Caco-2 Flux Efflux ratio (Caco-2 cells) | further results
CC[C@@]1(O)C(=O)OCc2c1cc1n(c2=O)Cc2c-1nc1cc(F)c(C)c3c1c2[C@@H](NC(=O)Cc1ccncc1)CC3 [Compound 9, N-[(1S,9S)-9-ethyl-5-fluoro-9-hydroxy-4-methyl-10,13-dioxo-2,3,9,10,13,15-hexahydro-1H,12H-benzo[de]pyrano[3′,4′:6,7]indolizino[1,2-b]quinolin-1-yl]-2-(pyridin-4-yl)acetamide] | 9.00 to 10.00 | 9.00 to 10.00 | 9.00 to 10.00 | 8.00 to 8.96 | 9.00 to 10.00 | 9.00 to 10.00 | 10.00 to 11.00 | 10.00 to 11.00 | 0.1 to 0.9 | > 2 |  |  | 
CC[C@@]1(O)C(=O)OCc2c1cc1n(c2=O)Cc2c-1nc1cc(F)c(C)c3c1c2[C@@H](NC(C)=O)CC3 [Compound 7, N-[(1S,9S)-9-ethyl-5-fluoro-9-hydroxy-4-methyl-10,13-dioxo-2,3,9,10,13,15-hexahydro-1H,12H-benzo[de]pyrano[3′,4′:6,7]indolizino[1,2-b]quinolin-1-yl]acetamide] | 10.00 to 11.00 | 10.00 to 11.00 | 10.00 to 11.00 | 10.00 to 11.00 | 10.00 to 11.00 | 10.00 to 11.00 | > 11.00 | > 11.00 | 0.1 to 0.9 | > 2 |  |  | 
CC[C@@]1(O)C(=O)OCc2c1cc1n(c2=O)Cc2c-1nc1cc(F)c(C)c3c1c2[C@@H](NC(=O)CO)CC3 [Ref 2, DXd, reference compound] |  |  |  |  |  |  |  |  |  |  | AA (AA: 1-9) | A (A: actively transported) | 
CC[C@@]1(O)C(=O)OCc2c1cc1n(c2=O)Cc2cc3cc4c(cc3nc2-1)OCO4 [Ref 3, 10,11-methylenedioxy-camptothecin, reference compound] |  |  |  |  |  |  |  |  |  |  | CC (CC: 100-999) | B (B: not actively transported) | 
exatecan mesylate [Ref 1, reference compound] |  |  |  |  |  |  |  |  |  |  | CC (CC: 100-999) | B (B: not actively transported) | 
CCN[C@H]1CCc2c(C)c(F)cc3nc4c(c1c23)Cn1c-4cc2c(c1=O)COC(=O)[C@]2(O)CC.O=C(O)C(F)(F)F [Compound 16, trifluoroacetic acid (1S,9S)-9-ethyl-1-(ethylamino)-5-fluoro-9-hydroxy-4-methyl-1,2,3,9,12,15-hexahydro-10H,13H-benzo[de]pyrano[3′,4′:6,7] indolizino[1,2-b]quinoline-10,13-dione (1/1)] | 9.00 to 10.00 | 9.00 to 10.00 | 9.00 to 10.00 | 9.00 to 10.00 | 9.00 to 10.00 | 9.00 to 10.00 | 10.00 to 11.00 | 10.00 to 11.00 | 10 to 99.9 | 0.5 to 2 |  |  | 
CCN(CC)[C@H]1CCc2c(C)c(F)cc3nc4c(c1c23)Cn1c-4cc2c(c1=O)COC(=O)[C@]2(O)CC [Compound 17, (1S,9S)-1-(diethylamino)-9-ethyl-5-fluoro-9-hydroxy-4-methyl-1,2,3,9,12,15-hexahydro-10H,13H-benzo[de]pyrano[3′,4′:6,7]indolizino[1,2-b]quinoline-10,13-dione] | 8.00 to 8.96 | 8.00 to 8.96 | 8.00 to 8.96 | 8.00 to 8.96 | 8.00 to 8.96 | 8.00 to 8.96 | 9.00 to 10.00 | 9.00 to 10.00 | 10 to 99.9 | 0.5 to 2 |  |  | AC50 (786-O [5]; with elastase, read-out: 786-O AC50 +elastase): 1.1 to 10 nM; AC50 (786-O [5]; without elastase, read-out: 786-O AC50 −elastase): 1.1 to 10 nM; AC50 (HT29 [6]; with elastase, read-out: HT29 AC50 +elastase): 11 to 100 nM; AC50 (HT29 [6]; without elastase, read-out: HT29 AC50 −elastase): 11 to 100 nM; AC50 (NCI H292 [7]; with elastase, read-out: NCI H292 AC50 +elastase): 1.1 to 10 nM; AC50 (NCI H292 [7]; without elastase, read-out: NCI H292 AC50 −elastase): 1.1 to 10 nM; AC50 (SUM149 [8]; with elastase, read-out: SUM149 AC50 +elastase): 1.1 to 10 nM; AC50 (SUM149 [8]; without elastase, read-out: SUM149 AC50 −elastase): 1.1 to 10 nM
CC[C@@]1(O)C(=O)OCc2c1cc1n(c2=O)Cc2c-1nc1cc(F)c(C)c3c1c2[C@@H](NC(=O)[C@H](CC(N)=O)NC(=O)Cc1ccncc1)CC3 [Compound 10, N^1-[(1S,9S)-9-ethyl-5-fluoro-9-hydroxy-4-methyl-10,13-dioxo-2,3,9,10,13,15-hexahydro-1H,12H-benzo[de]pyrano[3′,4′:6,7]indolizino[1,2-b]quinolin-1-yl]-N^2-[(pyridin-4-yl)acetyl]-L-aspartamide] |  |  |  |  |  |  |  |  |  |  |  |  | pIC50 (HT29 [9]; HT-29, read-out: HT29 IC50 w legumain): < 7.00; pIC50 (HT29 [9]; HT-29, read-out: HT29 IC50 w/o): < 7.00; pIC50 (NCI H292 [10]; NCI-H292, read-out: NCI H292 IC50 w legumain): < 7.00; pIC50 (NCI H292 [10]; NCI-H292, read-out: NCI H292 IC50 w/o): < 7.00; pIC50 (SUM149 [11]; SUM149, read-out: SUM149 IC50 w legumain): < 7.00; pIC50 (SUM149 [11]; SUM149, read-out: SUM149 IC50 w/o): < 7.00
CC[C@@]1(O)C(=O)OCc2c1cc1n(c2=O)Cc2c-1nc1cc(F)c(C)c3c1c2[C@@H](NC(=O)C(F)(F)F)CC3 [Compound 8, N-[(1S,9S)-9-ethyl-5-fluoro-9-hydroxy-4-methyl-10,13-dioxo-2,3,9,10,13,15-hexahydro-1H,12H-benzo[de]pyrano[3′,4′:6,7]indolizino[1,2-b]quinolin-1-yl]-2,2,2-trifluoroacetamide] | 10.00 to 11.00 | 10.00 to 11.00 | 10.00 to 11.00 | 10.00 to 11.00 | 10.00 to 11.00 | 10.00 to 11.00 | > 11.00 | > 11.00 | 1 to 9.9 | > 2 |  |  | 
